Measurements taken from article PMC7760514, “Fatty Acid Conjugation Leads to Length-Dependent Antimicrobial Activity of a Synthetic Antibacterial Peptide (Pep19-4LF)” (Antibiotics, 2020).
≈ marks a conversion by molar mass, not a printed value. Peptide text beside a SMILES is read from it. * marks the point of attachment. Hexanoyl = CCCCCC(=O)*

What was measured:
[1] = tested on: Rothia kristinae (DSM 20032); assay: Minimal inhibitory concentration (MIC), broth microdilution; type: cell-based; details: Table 3 of supplement, n=3; unit inferred; 37 ± 1 °C
Method: (§1) Minimal inhibitory concentrations (MICs) were determined against Gram-positive Enterococcus faecium vanA (UL 602570*, clinical isolate from Institute for Medical Microbiology and Hygiene, Heidelberg University Hospital, Heidelberg, Germany), Staphylococcus aureus (ATCC 25923), Rothia kristinae (DSM 20032), and Gram-negative Acinetobacter bohemicus (DSM 100419) (all obtained from the Department of Infectious Diseases, Medical Microbiology and Hygiene, Heidelberg University, Heidelberg, Germany) in a 96-well polypropylene plate (650261 Greiner Bio-One GmbH, Frickenhausen, Germany) according to European Committee on Antimicrobial Susceptibility Testing (EUCAST) and The Clinical & Laboratory Standards Institute (CLSI) guidelines. Briefly, the stock solutions of the peptide conjugates in water were adjusted to a concentration of 1.28 mg/mL. Starting with the highest concentration of 64 μg/mL in 96-well polypropylene plates, dilution series in cation-adjusted Mueller–Hinton broth (MHB II; Sigma Aldrich, Steinheim, Germany) were performed, resulting in the lowest concentration of 0.125 μg/mL. A logarithmic growing bacterial culture was adjusted to a McFarland corresponding to 1 × 10^8 cfu/mL using a McFarland counter (DensiCHEK® plus, bioMerieux, Marcy-l’Étoile, France). Finally, a bacterial suspension of 1 × 10^6 cfu/mL (further diluted in MHB II) was added to each peptide-conjugate concentration. Thus, the final bacterial concentration in each well was 5 × 10^5 cfu/mL. The bacteria were incubated at 37 ± 1 °C (for A. bohemicus: 30 ± 1 °C) overnight and the bacterial growth was analyzed after 18 to 20 h. The MIC was defined as the lowest concentration of substance without any visible growth. Vancomycin and colistin sulfate were purchased from Sigma-Aldrich Chemie GmbH, München, Germany and Carl Roth GmbH, Karlsruhe, Germany.

[2] = tested on: Acinetobacter bohemicus (DSM 100419); assay: Minimal bactericidal concentration (MBC); type: cell-based; details: Table S2, n=3; unit inferred; lowest concentration killing 99.9% of the inoculum; agar 24 h, 30 ± 1 °C
Method: (§2) Minimal bactericidal concentrations (MBCs) were determined by pipetting 3 µL of each broth dilution solution without visible growth onto a new agar plate. The agar plates were incubated at 37 ± 1 °C (for A. bohemicus: 30 ± 1 °C) for 24 h and were again analyzed with respect to bacterial growth. MBC is defined as the lowest concentration killing 99.9% of the inoculum.

[3] = tested on: Rothia kristinae (DSM 20032); assay: Minimal bactericidal concentration (MBC); type: cell-based; details: Table 3 of supplement, n=3; unit inferred; lowest concentration killing 99.9% of the inoculum; agar 24 h, 37 ± 1 °C
Method: as §2

[4] = tested on: Acinetobacter bohemicus (DSM 100419); assay: Minimal inhibitory concentration (MIC), broth microdilution; type: cell-based; parameters: key to MIC value: MIC in μg/mL (lowest concentration without visible growth); details: 30 ± 1 °C; for MIC value: Table S2, n=3, no unit given (main text uses µg/mL)
Method: as §1

red blood cells = type: cell-based, human
Method: A hemolysis assay was performed using heparinized blood for Pep19-4LF, Pep19-2.5, C6-Pep19-short, C11-Pep19-short, and C18-Pep19-short to test the toxicity against red blood cells and selectivity against bacterial cells. A 600 µM stock solution of each peptide was prepared in 0.9% NaCl. Heparinized blood was taken from three individual fasted, healthy volunteers. To purify the erythrocytes, the blood was centrifuged at 2500 rpm for 10 min and the supernatant was removed. The cell-pellet was resuspended in standard PBS. The centrifugation step was repeated for three times until the supernatant was visibly clear. A 96-well v-bottom plate (Greiner Bio-One International GmbH, Kremsmünster, Austria) was loaded as follows: row 1 (A1-H1) was preloaded with 100 µL of 600 µM peptide stock solution and row 12 (A12-H12) was preloaded with 50 µL 10% Triton X-100 (PerkinElmer, Boston, USA) and served as a positive control. […] Fifty µL of the supernatant was then transferred to a new 96-well flat-bottom plate (Greiner Bio-One International GmbH, Kremsmünster, Austria) and the absorbance was measured at a wavelength of 554 nm, using an Infinite M200 PRO microplate reader (Tecan Trading, Maennedorf).
Hemolysis was calculated with the following equation: Hemolysis [%]= Aconjugate− Ablank/ATriton− Ablank

[5] = rat, in vivo, iv
Method: For this purpose, the tyrosine residues of the peptides were radiolabeled with ^125I (Hartmann Analytic GmbH, Braunschweig, Germany) using the chloramine-T method [28]. Free ^125I was separated by preparative HPLC as previously described by Schieck et al. [22]. Approximately 2 to 4 MBq of the radiolabeled peptides was injected intravenously into the tail vein and images were recorded immediately post injection and after 1 h, 2 h, 3 h, 5 h, and 24 h. Scintigraphical images were obtained by using a γ-camera (Gamma Imager, Biospace Lab, Paris, France).

[6] = tested on: Enterococcus faecium (UL602570*, clinical isolate, vanA-resistant); assay: Minimal inhibitory concentration (MIC), broth microdilution; type: cell-based; details: cation-adjusted MHB II, 5 × 10^5 cfu/mL, 37 ± 1 °C, read after 18 to 20 h, n = 3
Method: as §1

[7] = tested on: Staphylococcus aureus (ATCC 25923); assay: as above; type: cell-based; details: cation-adjusted MHB II, 5 × 10^5 cfu/mL, 37 ± 1 °C, read after 18 to 20 h, n = 3
Method: as §1

[8] = type: physicochemical
Text: The high MIC value of Pep19-short indicates the importance of a hydrophobic moiety for this synthetic antimicrobial peptide. […] If the length of the fatty acid is too short, the interaction between the peptide conjugate and components of the bacterial cell membrane might be unfavorable, thus leading to loss of efficiency. Fatty acids of medium chain length enable a stable plateau of low MIC values, indicating a more efficient interaction between the peptide conjugate and bacterial cells. […] A detailed interaction between Pep19 peptides and membrane-bound toxins was previously described by Correa et al.. […] A hypothesized mechanism for this interaction represents the reorganization of the bacterial membrane leading in an inability to maintain the osmotic pressure. Here, the positively-charged amino acids of the peptide conjugate might interact with the negatively-charged compounds of the bacterial cell wall and the hydrophobic part interacts with hydrophobic lipids of the bacterial membrane. Several mechanisms for a membrane disruption by amphiphilic peptides were further described by Sato and Feix. With respect to the parent peptide Pep19-4LF, the hydrophobic moiety was located at the C-terminus. As the synthesis leads to peptides that are linked to the resin via their C-terminus, the fatty acids were linked to the free N-terminus of the peptide. […]

[9] = tested on: Rothia kristinae (DSM 20032); assay: Time-kill studies; type: cell-based; details: for time until all bacteria killed: n=3
Method: Time–kill studies were performed in accordance with CLSI guidelines. Therefore, Rothia kristinae DSM 20032 was adjusted to a concentration of 1 x 10^8 cfu/mL and further diluted to 1 × 10^6 cfu/mL in cation-adjusted MHB II. According to the previous determined MIC values of Pep19-4LF, C11-Pep19-4LF, and bacitracin (positive control) (Sigma Aldrich Chemie GmbH, München, Germany), samples were taken for 4 × MIC, 2 × MIC, 1 × MIC, and 0.5 × MIC after 30 min, 1 h, 2 h, 4 h, and 8 h. These samples were diluted in sterile saline and 10 µL of each sample was loaded onto agar plates. A bacterial suspension of 1 × 10^6 cfu/mL served as a growth control. Incubation occurred at 37 ± 1 °C and all counted colonies were recalculated to the colony number in the original inoculum.

Molecule	MIC value [1]	MBC value [2]	MBC value [3]	MIC value [4]	hemolytic activity (red blood cells)	speed of elimination compared among the peptides [5]	MIC [6]	MIC [7]	solubility in water [8]	MIC ([4]; broth microdilution, cation-adjusted MHB II, 5 × 10^5 cfu/mL, read after 18 to 20 h, n = 3)	change in number of cfu/mL ([9]; 0.5 × MIC, 0 to 8 h, n = 3)	time until all bacteria killed ([9]; 1 × MIC)	time until all bacteria killed ([9]; 2 × MIC)	time until all bacteria killed / no detectable cfu ([9]; 4 × MIC, 1 × 10^6 cfu/mL in MHB II, 37 °C, n = 3)	mode of action ([9]; 4 × MIC, n = 3)
CCCCCC(=O)NCC(=O)N[C@@H](CCCCN)C(=O)N[C@@H](CCCCN)C(=O)N[C@@H](Cc1ccc(O)cc1)C(=O)N[C@@H](CCCNC(=N)N)C(=O)N[C@@H](CCCNC(=N)N)C(=O)N[C@@H](Cc1ccccc1)C(=O)N[C@@H](CCCNC(=N)N)C(=O)N[C@@H](Cc1c[nH]c2ccccc12)C(=O)N[C@@H](CCCCN)C(=O)N[C@@H](Cc1ccccc1)C(=O)N[C@@H](CCCCN)C(=O)NCC(=O)N[C@@H](CCCCN)C(N)=O [C6-Pep19-short] (Hexanoyl-GKKYRRFRWKFKGK-NH2)	16 µg/mL (≈ 8.07 µM)	16 µg/mL (≈ 8.07 µM)	32 µg/mL (≈ 16.1 µM)	16	no hemolytic activity										
GKKYRRFRWKFKGKLFLFG-NH2 [Pep19-4LF, synthetic antimicrobial parent peptide, …-NH2]	8 µg/mL	8 µg/mL	8 µg/mL	8		slowest elimination	8 µg/mL	32 µg/mL	very low solubility in water	8 µg/mL	only a small decrease in the number of cfu/mL	> 8 h	1 h	30 min	bactericidal mode of action
